From patent publication US5874426A, “Cyclic amine derivatives of substituted quinoxaline 2,3-diones as glutamate receptor antagonists” (Warner-Lambert Company, priority 1995, dated 1999)

Assays:
CF-1 strain mice = assay: maximal electroshock assay in CF-1 strain mice, corneal electrodes; type: in vivo; details: ten mice; IV; 30 seconds; 0.5 min
Description: The graph is the […] of mice protected versus the time in minutes.

AMPA receptors = assay: AMPA receptor binding affinity (Honoré et al.); details: Table 1
[1] = biological target: kainate site (non-NMDA receptor); assay: kainate site (non-NMDA receptor) binding affinity (London and Coyle); details: Table 1

IC50 (AMPA receptors) [nM] | IC50 KA [1] [nM] | Compound | ED50 maximal electroshock dose-response (CF-1 strain mice) [mg/kg]
– | – | 1,4,7,8,9,10-hexahydro-7-methyl-6-nitro-pyrido[3,4-f]quinoxaline-2,3-dione [PNQX] | 0.5
740 | 2840 | Cc1c([N+](=O)[O-])cc2[nH]c(=O)c(=O)[nH]c2c1CN1C(C)CCC1C (stereo not drawn) [5-(2,5-Dimethyl-pyrrolidin-1-ylmethyl)-6-methyl-7-nitro-1,4-dihydroquinoxaline-2,3-dione] | –
486 | 6540 | Cc1c([N+](=O)[O-])cc2[nH]c(=O)c(=O)[nH]c2c1CN1CCC2(CCCCC2)CC1 [5-(3-Azaspiro [5.5]undec-3-ylmethyl)-6-methyl-7-nitro-1,4-dihydroquinoxaline-2,3-dione] | –
899 | 3695 | Cc1c([N+](=O)[O-])cc2[nH]c(=O)c(=O)[nH]c2c1CN1CCCCCC1 [5-Azepan-1-ylmethyl-6-methyl-7-nitro-1,4-dihydroqinoxaline-2,3-dione] | –
490 | 8280 | Cc1c([N+](=O)[O-])cc2[nH]c(=O)c(=O)[nH]c2c1CN1CCCCC1C (stereo not drawn) [6-Methyl-5-(2-methyl-piperidin-1-ylmethyl)-7-nitro-1,4-dihydroquinoxaline-2,3-dione] | –
370 | 6110 | Cc1c([N+](=O)[O-])cc2[nH]c(=O)c(=O)[nH]c2c1CN1CCCC1C (stereo not drawn) [6-Methyl-5-(2-methyl-pyrrolidin-1-ylmethyl)-7-nitro-1,4-dihydroquinoxaline-2,3-dione] | –
2470 | 13200 | Cc1c([N+](=O)[O-])cc2[nH]c(=O)c(=O)[nH]c2c1CN1CCN(C)CC1 [6-Methyl-5-(4-methyl-piperazin-1-ylmethyl)-7-nitro-1,4-dihydroquinoxaline-2,3-dione] | –
420 | 9950 | Cc1c([N+](=O)[O-])cc2[nH]c(=O)c(=O)[nH]c2c1CN1CCC(C)CC1 [6-Methyl-5-(4-methyl-piperidin-1-ylmethyl)-7-nitro-1,4-dihydroquinoxaline-2,3-dione] | –
572 | 9083 | Cc1c([N+](=O)[O-])cc2[nH]c(=O)c(=O)[nH]c2c1CN1CCOCC1 [6-Methyl-5-morpholin-4-ylmethyl-7-nitro-1,4-dihydroquinoxaline-2,3-dione] | –
220 | 4520 | Cc1c([N+](=O)[O-])cc2[nH]c(=O)c(=O)[nH]c2c1CN1CCCC1 [6-Methyl-5-pyrrolidin-1-ylmethyl-7-nitro-1,4-dihydroquinoxaline-2,3-dione] | –
290 | 4110 | Cc1c([N+](=O)[O-])cc2[nH]c(=O)c(=O)[nH]c2c1CN1CCCCC1 [6-Methyl-7-nitro-5-piperidin-1-ylmethyl-1,4-dihydroquinoxaline-2,3-dione] | –
